Test results reported in patent publication US20100310591A1 (priority 2009, published 2010).
Values joined by “and” are separate entries in the source; they are usually repeats but may differ in a detail not shown here. Equal entries are not always repeated.

System: CD4+ T cells (CD8+ depleted PBMC of rHA-responsive donors)
Type: cell-based, human
Settings: not given

Substance	in vitro CD4 response, fold above background
WLIKKNSTYPTILRSYN [BEI 29]	3.6 fold above background
YQGKSSFFRNVVWLIKK [BEI 27]	12 fold above background
FFRNVVWLIKKNSTYPT [BEI 28]	3.7 fold above background
SNVKNLYDKVRLQLRDN [BEI 78]	3.3 fold above background
LRNSPQRERRRKKRGLF [BEI 57]	4.1 fold above background
LVPRIATRSKVNGQSGR [BEI 39]	3.8 fold above background
KMEDGFLDVWTYNAELL [BEI 73]	15 fold above background
IGECPKYVKSNRLVLAT [BEI 54]	3.9 fold above background and 3.8 fold above background
NHFEKIQIIPKSSWSSH [BEI 22]	4.6 fold above background
MEKNVTVTHAQDUKEKT [BEI 7]	12 fold above background

System: MHC class II molecules
Settings: cited from earlier work

Substance	share of maximal activity of any member of the series of Ii-key peptides
LRMK (SEQ ID NO: 3)	at least 50%

System: CD4+ T cells (CD8+ depleted donor PBMC)
Type: cell-based, human
Settings: not given

Substance	frequency of recognition (responding vaccine recipients / tested)	in vitro IFN-γ response (in words)
Ac-LRMK-ava-KKNSAYPTIKRSY—NH2 [Ii-Key peptide No. 170]	9/35	strongest in vitro IFN-γ responses
Ac-LRMK-ava-HLLSRINHFEKIQ—NH2 [Ii-Key peptide No. 121]	9/35	strongest in vitro IFN-γ responses
Ac-LRMK-ava-TIKRSYNNTNQED—NH2 [Ii-Key peptide No. 177]	10/35	strongest in vitro IFN-γ responses
